Assay results taken from US4639510A, “(1-S-acetamidomethyl cysteine, 7-alanine)calcitonin” (Armour Pharmaceutical Company, priority 1985, dated 1987).

System: serum calcium concentration
Test: Biological assay of calcitonin analogs in vivo: reduction of serum calcium concentration vs synthetic salmon calcitonin standard
Parameters: species or system Rats
Method: Biological Assay Of Calcitonin Analogs In Vivo
The biological potency of [S-Acm-Cys',Ala^7 ]salmon calcitonin was determined by comparing the reduction of serum calcium concentration which followed administration by graded doses of [S-Acm-Cys^1,Ala^7 ]SCT and synthetic salmon calcitonin standard. Rats were divided into four groups of seven animals, and each group was assigned at random to a dose of standard or test solution. Low and high doses were chosen from the linear portion of the dose-response curve. For the salmon calcitonin standard, the values were 0.7 and 2.1 mcg. peptide/100 g. body weight (BW). This dose approximates 3 and 9 MU/100 g. BW. Peptides were given by subcutaneous injection (0.2 ml/100 g. BW) and blood was withdrawn 1 hour later for serum calcium determination. Sera are processed and analyzed within two hours of collection. […]. Results were analyzed by a 2×2 parallel line assay [Gaddum, J. H., J. Pharm. Pharmacol., 6, 345 (1953)]. The standard salmon calcitonin used was independently determined to contain greater than 4,000 IU/mg. [S-Acm-Cys^1,Ala^7 ]SCT assayed at 6300 IU/mg, (95% 5800-6900).

Substance | biological potency of the standard (independently determined content) (standard salmon calcitonin used in the assay, independently determined) | biological potency (rats, subcutaneous injection, serum calcium 1 hour later, 2×2 parallel line assay vs salmon calcitonin standard, 95% 5800-6900)
Salmon calcitonin | greater than 4,000 IU/mg | 
[S-Acm-Cys^1,Ala^7)]salmon calcitonin [[S-Acm-Cys^1,Ala^7]SCT] |  | 6300 IU/mg
